The assay addresses D(2) dopamine receptor (Rattus norvegicus, UniProt P61169).

“And” between values parts separate entries of the source, which are not always exact repeats. Equal values may be shown once.

A word on the Ki: it is the dissociation constant of the complex between target and ligand, obtained from inhibition or displacement. Lower therefore signals higher affinity.

Chain of D(2) dopamine receptor (P61169 whole entry): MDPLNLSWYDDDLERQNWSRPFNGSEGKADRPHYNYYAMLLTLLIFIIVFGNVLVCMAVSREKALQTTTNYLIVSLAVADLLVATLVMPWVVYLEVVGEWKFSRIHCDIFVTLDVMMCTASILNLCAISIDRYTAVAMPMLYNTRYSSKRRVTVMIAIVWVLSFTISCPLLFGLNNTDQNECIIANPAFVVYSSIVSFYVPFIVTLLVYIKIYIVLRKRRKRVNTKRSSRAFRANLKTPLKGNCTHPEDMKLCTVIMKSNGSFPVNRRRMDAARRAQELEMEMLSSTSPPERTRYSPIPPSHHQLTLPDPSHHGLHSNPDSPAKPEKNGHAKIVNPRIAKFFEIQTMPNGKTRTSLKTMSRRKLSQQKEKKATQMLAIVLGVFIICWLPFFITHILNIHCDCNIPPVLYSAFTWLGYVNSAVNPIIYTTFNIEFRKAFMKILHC

`Cc1cccc(N2CCN(CCCOc3ccc4ccc(=O)[nH]c4c3)CC2)c1C` [NSC_163839]: the Ki was 19.8 nM and 18 nM and 9.8 nM.

The record behind these values is BindingDB's records for PubMed 7616416 (Third Tokushima Institute of New Drug Research, 1995).
